Data reported in patent publication US20010014676A1, “Immunosuppressive compositions” (priority 1990, published 2001).

System: Lewis-Brown Norway F1 Hybrid cardiac allografts in Lewis recipients
Test: acute cardiac allograft rejection model (procedure of Kupiec-Weglinski)
Type: in vivo, rat
Conditions: for GRAFT SURVIVAL MEAN ± SD: N=7
Procedure: The therapeutic efficacy of a pharmaceutical composition of the invention was tested according to the procedure of Kupiec-Weglinski, J. W., et al., (1988) Transplant Proc. 20:207-216 (hereinafter “Kupiec-Weglinski”) to determine its in vivo potency as an acute transplantation/graft rejection modulator.
Briefly, to preform these experiments, the following protocol was employed. Male inbred adult rats (Lewis-Brown Norway F1 Hybrid rats, obtained from Harlan sprague—Dawley Inc., Indianapolis, Ind.) were used. Lewis-Brown Norway F1 Hybrid cardiac allografts were transplanted to the abdominal great vessels of Lewis recipients. The animals were administered compounds according to the following five distinct regimens.
Protocol I. Pretreatment Protocol—20 mg/kg/day of Compound A was administered orally for 7 consecutive days prior to transplantation (days −7 to −1).
Protocol II Treatment Protocol—20 mg/kg/day of Compound A was administered orally for 7 consecutive post-transplant days (days 0-6) followed by intermittent 5 day courses (days 9-13 and 16-20).
Protocol III Pretreatment and Treatment Protocol—20 mg/kg/day of Compound A was administered orally for 7 consecutive days prior to transplantation (days −7 to −1) followed by intermittent 5 day courses (days 9-13 and 16-20).
Ventricular contractions were assessed daily by palpation through the recipient flank. Rejection was defined as the day of cessation of myocardial contractions and confirmed histologically.

With `CCCC1(CCC)CCC2(CCN(CCCN(C)C)C2)CC1` [Compound A, N,N-dimethyl-8,8-dipropyl-2-azaspiro [4,5]-decane-2-propanamine] the “average graft survival time” value (Compound A alone (pretreatment, treatment or pretreatment and treatment protocol), untreated average 7 days) was 16 days, the “GRAFT SURVIVAL MEAN ± SD” value (Protocol I pretreatment: Compound A 20 mg/kg/day orally, days -7 to -1) was 14.7 ± 5.8 days and the “GRAFT SURVIVAL MEAN ± SD” value (Protocol II treatment: Compound A 20 mg/kg/day orally, days 0-6, then days 9-13 and 16-20) was 16.7 ± 2.0 days. The “GRAFT SURVIVAL MEAN ± SD” value (Protocol III pretreatment and treatment: Compound A 20 mg/kg/day orally, days -7 to -1, then days 9-13 and 16-20) was 16.0 ± 4.3 days and the “graft survival time (transplants routinely retained)” value (combination protocol: Compound A 20 mg/kg/day orally plus cyclosporin A […] by injection, days 0-6) was “over 40 days”.
